Here are results for one molecule from paper PMC6104039 (Nature Communications, 2018).

Each structure is given as a SMILES string.

`C[C@@](N)(CO)CCc1ccc(OCc2ccccc2)cc1` [G024, (2S)-2-amino-4-(4′-benzyloxyphenyl)-2-methyl-1-butanol] gave a melting point of 196.7 to 197.6 °C.

The melting point is the temperature of the solid-liquid transition.
